Tested on: bronchospasms elicited by intravenous injections of acetylcholine
Experiment: Bronchodilator activity against bronchospasm elicited by acetylcholine, Konzett procedure
Assay type: in vivo, guinea pigs
Settings: Cavia porcellus; spasmogen acetylcholine; three logarithmic cumulative intravenous doses; guinea pig
Experimental: The compounds of this invention are useful as bronchodilators for the treatment of asthma and chronic bronchitis. Bronchodilator activity is determined in guinea pigs against bronchospasms elicited by intravenous injections of 5-hydroxytryptamine, histamine or acetylcholine by the Konzett procedure. [See J. Lulling, P. Lievens, F. El Sayed and J. Prignot, Arzneimittel-Forschung, 18, 955 (1968).]
In Table which follows bronchodilator activity for representative compounds of this invention against one or more of three spasmogenic agents is expressed as an ED50 determined from the results obtained with three logarithmic cummulative intravenous doses. In this assay, these compounds of this invention provide an effect of longer duration than does natural 1-PGE1 or 1-PGE2.

Compound: CCCCCC(C)(O)/C=C/[C@H]1[C@H](O)CC(=O)[C@@H]1CCCCCCC(=O)C(=O)OCC (relative stereo) [dl-1,9-dioxo-1-carbethoxy-11α,15-dihydroxy-15-methyl-13-trans-prostene]
- ED50: > 3.2 mg/kg

From patent US4260805A, “1-Descarboxy-1-ketoester (ketoacid)-prostaglandins” (American Cyanamid Company, priority 1979, dated 1981)
